Blank lines part the entries; values can stand above or below the compound they belong to.
Key:
Format in all cases: cell-based, Human
SaOS-2 cells [1] = assay: Number of SaOS-2 cells per well (FIG. 3); conditions: for effect on number of SaOS-2 cells per well: polyP 50 μM where present
Protocol: Only at a very high concentration, LaCl3 caused a strong drop of SaOS-2 cell number.
(§1) Human osteogenic sarcoma SaOS-2 cells are cultured in McCoy's medium (Biochrom, Berlin; Germany) containing 5 mM Na-phosphate and 1 mM CaCl2, supplemented with 15% heat inactivated fetal calf serum (FCS), Na-pyruvate (1 mM), Ca(NO3)2 (0.5 mM), penicillin (100 U/ml), and streptomycin (100 μg/ml), in 6-well plates (surface area 9.46 cm^2; Orange Scientifique, Braine-l'Alleud; Belgium) in a humidified incubator at 37° C. and 5% CO2. Routinely, 2×10^4 cells are added per well (total volume 3 ml).

SaOS-2 cells [2] = assay: HA mineralization with LaCl3 / polyP, Alizarin Red S OD 570 nm (FIG. 5, 6)
Protocol: The cells were grown for 4 days in the absence of the activation cocktail (AC) and then for further 7 days (i) in the absence or (ii) in the presence of the activation cocktail with increasing concentrations of LaCl3 without (A) or with (B) 50 μM polyP (polyP•La complex). At the end of the incubation period, HA mineralization was determined by incubation of the cultures with Alizarin Red S in the spectrophotometric assay. […] The OD values at 570 nm measured in the spectrophotometric assay in the absence of the activation cocktail had been subtracted from the OD values at 570 nm measured in the presence of the activation cocktail, and the HA formation in the absence of LaCl3 and polyP (FIG. 5 A) was set to 100%.
The data shown in FIG. 5 had been normalized by the number of cells which had been determined in parallel assays. […] The HA formation in the absence of LaCl3 and polyP (FIG. 6 A) was set to 100%.
Similar results were obtained if the values were normalized by cell number (FIG. 6).

BMP2 = assay: qRT-PCR BMP2 gene expression; conditions: 5 μM
SaOS-2 cells [3] = assay: SEM analysis of HA nodules; conditions: 5 μM, activated cultures, 5 days
Protocol: In this assay Me was Gd. 5 μM of each compound were added to the cells, and the cells were analysed by SEM. The cell cultures were incubated for 5 days either (A) in the absence or (B) in the presence of the activation cocktail. (C) and (F) show incubation of the activated cells with MeCl3; (D) and (G) show incubation of the activated cells with polyP, and (E) and (H) show incubation of the activated cells with polyP•Me. Some nodules (no) and cell layers (c) are marked.
To assure that the increased Alizarin Red S staining is due to a higher HA (Ca-phosphate) deposition SEM analyses were performed. In the absence of the activation cocktail no nodules could be identified on the cells (FIG. 7A). In contrast, if the cells were incubated with the cocktail for 5 days, distinct HA nodules could be identified (FIG. 7B). In the presence of the activation cocktail the cultures were incubated with MeCl3 (FIG. 7C), polyP (FIG. 7D), or both components together, as polyP•Me (FIG. 7E). It is apparent that the density of the nodules in activated cultures incubated with MeCl3 or with polyP alone was lower, compared to polyP•Me. At higher magnification it could be observed that the nodules consisted of irregularly arranged prism-like nanorods (FIGS. 7F to H). […]

SaOS-2 cells [4] = assay: MTT colorimetric proliferation/viability assay; conditions: tested concentration range of 0.3 to 30 μM; Me = Gd
Protocol: In this assay Me was Gd. The recordings of developed formazan dye in the control (filled bar) were set to 100%. The results are expressed as means (n=10 experiments each)±SEM.
The effects of polyP•Me as well as of the single components polyP and MeCl3 on proliferation/viability of SaOS-2 cells were determined by applying the MMT colorimetric assay (MMT=3-(4,5-dimethylthiazol-2-yl)-2,5-diphenyltetrazolium bromide).
as §1
SaOS-2 cells are seeded at a density of 2×10^4 cells per 3-ml well in a 24-multi-well plate (Orange Scientifique) and cultured for 3 days in McCoy's medium/15% FCS. Increasing concentrations of MeCl3, polyP or polyP•Me are added to the cultures. After incubation, cell proliferation is determined applying the colorimetric method based on the tetrazolium salt […].

SaOS-2 cells [5] = assay: HA mineralization, Alizarin Red S staining and spectrophotometric assay (FIG. 4); conditions: 5 μM, Me = Gd
Protocol: In this assay Me was Gd. The cells were incubated with 5 μM of each of the compounds. FIG. 4 A: The cells were grown for 7 d in the (a) absence or (b) presence of activation cocktail (AC=50 μM ascorbic acid, 10 nM dexamethasone and 1 mM β-glycerophosphate). In separate experiments the cultures were incubated with the activation cocktail and additionally with (c) MeCl3, (d) polyP, or (e) polyP•Me. After incubation, the cell assays were stained with Alizarin Red S to assess the degree of […]. The diameter of the wells was 15 mm. FIG. 4 B: To quantitatively determine the HA mineralization in SaOS-2 cells, the cultures were assayed at the end of the incubation with Alizarin Red S (AR) in the spectrophotometric assay. […]
The intensity of the Alizarin Red colorimetric reaction at the used concentration range is proportional to the extent of mineralization (HA formation), as determined by using a calibration curve. The values measured (given in nmoles of Alizarin Red S bound) were normalized to the total amount of DNA (given in μg) which is proportional to cell number (the amount of DNA per cell is assumed to remain constant during the experiment). […]
The influence of trivalent cations on the extent of mineralization of SaOS-2 cells was determined in vitro using McCoy's medium/10% FCS and applying Alizarin Red S as a dye to monitor HA formation. […]

effect on number of SaOS-2 cells per well (SaOS-2 cells [1]; 0.1 mM AlCl3 and higher): strong reduction
Compound: [Cl][Al]([Cl])[Cl] [AlCl3]

effect on number of SaOS-2 cells per well (SaOS-2 cells [1]; 0.05 mM to 1 mM LaCl3): did not significantly affect
effect on SaOS-2 cell number (SaOS-2 cells [1]; very high concentration of LaCl3): strong drop
Compound: [Cl][La]([Cl])[Cl] [LaCl3]
HA formation (SaOS-2 cells [2]; 0.05 mM LaCl3, absence of polyP, activation cocktail 7 days): marked increase
stimulatory effect on HA formation (SaOS-2 cells [2]; LaCl3 0.5 mM and higher, absence of polyP): not observed any more

Compound: [Cl][Gd]([Cl])[Cl] [MeCl3, GdCl3]
BMP2 expression level versus day 5 (BMP2; 7 days): remained unchanged
increase in steady-state expression of BMP2 (BMP2; day 5, normalized to GAPDH): 1.4 fold
density of HA nodules compared to polyP•Me (SaOS-2 cells [3]): lower
viability/proliferation of SaOS-2 cells (development of the dye formazan) (SaOS-2 cells [4]): did not change
Alizarin Red S bound normalized to total DNA (HA mineralization) (SaOS-2 cells [5]; 7 days after the addition of the activation cocktail): 0.61 ± 0.08 nmol/µg
Alizarin Red S staining intensity / HA formation (SaOS-2 cells [5]; in the presence of the activation cocktail, 7 d): intensified the staining intensity
